In US20090131431A1, “Pyrazolo[3,4-b]pyridine compounds, and their use as a PDE4 inhibitors” (priority 2005, published 2009):
Where a name gives a salt, the structure may show the parent alone.

Target: T1, PDE4B (human recombinant) (Homo sapiens, UniProt Q07343)
T1 construct: made in house
Assay: Inhibition of PDE4B activity: SPA and/or Fluorescence Polarisation (FP) assay
Assay type: biochemical
Settings: one reading (n=1) or average of 2 or more readings, read-out: PDE4B pIC50 (±about 0.5) (converted)
Procedure: The ability of compounds to inhibit catalytic activity at PDE4B or 4D (human recombinant), PDE3 (from bovine aorta), PDE5 (human recombinant) or PDE6 (from bovine retina) can optionally be determined by Scintillation Proximity Assay (SPA) in a 96-well format.
The enzyme concentration is adjusted so that no more than 20% hydrolysis of the substrate defined below occurs in control wells without compound, during the incubation. For the PDE3, PDE4B and PDE4D assays, [5′,8-3H]Adenosine 3′,5′-cyclic phosphate (Amersham Pharmacia Biotech, code TRK.559; or Amersham Biosciences UK Ltd, Pollards Wood, Chalfont St Giles, Buckinghamshire HP8 4SP, UK) is added to give 0.05 uCi per well and about 10 nM final concentration. […] Plates containing assay mixture, suitably approx. 100 ul volume of assay mixture, are mixed on an orbital shaker for 5 minutes and incubated at ambient temperature for 1 hour. Phosphodiesterase SPA beads (Amersham Pharmacia Biotech, code RPNQ 0150) are added (about 1 mg per well) to terminate the assay. Plates are sealed and shaken and allowed to stand at ambient temperature for 35 minutes to 1 hour (suitably 35 minutes) to allow the beads to settle. […] Curves are analysed using ActivityBase and XLfit (ID Business Solutions Limited, 2 Ocean Court, Surrey Research Park, Guildford, Surrey GU2 7QB, United Kingdom). Results are expressed as pIC50 values.
The ability of compounds to inhibit catalytic activity at PDE4B (human recombinant) or PDE4D (human recombinant) can optionally be determined by IMAP Fluorescence Polarisation (FP) assay (IMAP Explorer kit, available from Molecular Devices Corporation, Sunnydale, Calif., USA; Molecular Devices code: R8062) in 384-well format.
The IMAP FP assay is able to measure PDE activity in an homogenous, non-radioactive assay format. The FP assay uses the ability of immobilised trivalent metal cations, coated onto nanoparticles (tiny beads), to bind the phosphate group of Fl-AMP that is produced on the hydrolysis of fluorescein-labelled (Fl) cyclic adenosine mono-phosphate (Fl-cAMP) to the non-cyclic Fl-AMP form. […] Binding of Fl-AMP product to the beads (coated with the immobilised trivalent cations) slows the rotation of the bound Fl-AMP and leads to an increase in the fluorescence polarisation ratio of parallel to perpendicular light. Inhibition of the PDE reduces/inhibits this signal increase.
The enzyme level is set by experimentation so that reaction is linear throughout the incubation. Fluorescein adenosine 3′,5′-cyclic phosphate (from Molecular Devices Corporation, Molecular Devices code: R7091) is added to give about 40 nM final concentration (final assay volume usually ca. 20-40 ul, suitably ca. 20 ul). Plates are mixed on an orbital shaker for 10 seconds and incubated at ambient temperature for 40 minutes. IMAP binding reagent (as described above, from Molecular Devices Corporation, Molecular Devices code: R7207) is added (60 ul of a 1 in 400 dilution in binding buffer of the kit stock solution) to terminate the assay. Plates are allowed to stand at ambient temperature for 1 hour. The Fluorescence Polarisation (FP) ratio of parallel to perpendicular light is measured using an Analyst™ plate reader (from Molecular Devices Corporation). […] Curves are analysed using ActivityBase and XLfit (ID Business Solutions Limited, 2 Ocean Court, Surrey Research Park, Guildford, Surrey GU2 7QB, United Kingdom). Results are expressed as plC50 values.

T1 sequence (Q07343 1-564 isoform Q07343-2): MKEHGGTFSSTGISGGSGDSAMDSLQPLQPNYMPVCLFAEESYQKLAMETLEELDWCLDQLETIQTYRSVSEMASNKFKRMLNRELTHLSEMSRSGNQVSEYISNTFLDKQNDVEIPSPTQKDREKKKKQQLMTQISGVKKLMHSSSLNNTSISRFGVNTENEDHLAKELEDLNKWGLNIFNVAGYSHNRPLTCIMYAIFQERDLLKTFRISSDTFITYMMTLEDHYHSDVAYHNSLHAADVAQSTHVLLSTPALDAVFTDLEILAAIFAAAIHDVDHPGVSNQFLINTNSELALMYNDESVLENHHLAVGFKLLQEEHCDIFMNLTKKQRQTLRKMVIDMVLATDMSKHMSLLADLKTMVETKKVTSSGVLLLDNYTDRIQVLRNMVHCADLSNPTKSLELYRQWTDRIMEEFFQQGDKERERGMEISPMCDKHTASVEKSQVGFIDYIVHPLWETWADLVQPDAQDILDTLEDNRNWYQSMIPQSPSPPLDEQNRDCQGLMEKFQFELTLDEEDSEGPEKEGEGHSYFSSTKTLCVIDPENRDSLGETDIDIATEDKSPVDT

Row | Compound | IC50
1 | CCc1nc2c(cnn2CC)c(NC2CCOCC2)c1CNC(=O)NCCc1ccccc1 [Example 202, N-{[1,6-diethyl-4-(tetrahydro-2H-pyran-4-ylamino)-1H-pyrazolo[3,4-b]pyridin-5-yl]methyl}-N′-(2-phenylethyl)urea] | 0.126 to 1 nM
2 | CCc1nc2c(cnn2CC)c(NC2CCOCC2)c1CNC(=O)Nc1ccccc1 [Example 203, N-{[1,6-diethyl-4-(tetrahydro-2H-pyran-4-ylamino)-1H-pyrazolo[3,4-b]pyridin-5-yl]methyl}-N′-phenylurea] | 0.126 to 1 nM
3 | CCc1nc2c(cnn2CC)c(NC2CCN(C(N)=O)CC2)c1CNC(=O)c1ccc(N2CCCCC2)cc1 [Example 204, 4-({1,6-diethyl-5-[({[4-(1-piperidinyl)phenyl]carbonyl}amino)methyl]-1H-pyrazolo[3,4-b]pyridin-4-yl}amino)-1-piperidinecarboxamide] | 0.01 to 0.1 nM
4 | CCc1nc2c(cnn2CC)c(NC2CCN(C(N)=O)CC2)c1CNC(=O)c1cccc2c1OCC2 [Example 205, 4-[(5-{[(2,3-dihydro-1-benzofuran-7-ylcarbonyl)amino]methyl}-1,6-diethyl-1H-pyrazolo[3,4-b]pyridin-4-yl)amino]-1-piperidinecarboxamide] | 0.01 to 0.1 nM
5 | CCc1nc2c(cnn2CC)c(NC2CCN(C(N)=O)CC2)c1CNC(=O)c1ccc2c(c1)CCC2 [Example 206, 4-[(5-{[(2,3-dihydro-1H-inden-5-ylcarbonyl)amino]methyl}-1,6-diethyl-1H-pyrazolo[3,4-b]pyridin-4-yl)amino]-1-piperidinecarboxamide] | 0.126 to 1 nM
6 | CCc1nc2c(cnn2CC)c(NC2CCN(C(N)=O)CC2)c1CNC(=O)c1ccc(N2CCOCC2)cc1 [Example 207, 4-({1,6-diethyl-5-[({[4-(4-morpholinyl)phenyl]carbonyl}amino)methyl]-1H-pyrazolo[3,4-b]pyridin-4-yl}amino)-1-piperidinecarboxamide] | 0.01 to 0.1 nM
7 | CCc1nc2c(cnn2CC)c(NC2CCN(C(N)=O)CC2)c1CNC(=O)c1ccc(C(C)C)cc1 [Example 208, 4-({1,6-diethyl-5-[({[4-(1-methylethyl)phenyl]carbonyl}amino)methyl]-1H-pyrazolo[3,4-b]pyridin-4-yl}amino)-1-piperidinecarboxamide] | 0.01 to 0.1 nM
8 | CCc1nc2c(cnn2CC)c(NC2CCN(C(N)=O)CC2)c1CNC(=O)c1ccc(N2CCCC2=O)cc1 [Example 209, 4-({1,6-diethyl-5-[({[4-(2-oxo-1-pyrrolidinyl)phenyl]carbonyl}amino)methyl]-1H-pyrazolo[3,4-b]pyridin-4-yl}amino)-1-piperidinecarboxamide] | 0.01 to 0.1 nM
9 | CCc1nc2c(cnn2CC)c(NC2CCN(C(N)=O)CC2)c1CNC(=O)c1ccc(C2CCCC2)cc1 [Example 210, 4-{[5-({[(4-cyclopentylphenyl)carbonyl]amino}methyl)-1,6-diethyl-1H-pyrazolo[3,4-b]pyridin-4-yl]amino}-1-piperidinecarboxamide] | 0.01 to 0.1 nM
10 | CCc1nc2c(cnn2CC)c(NC2CCN(C(N)=O)CC2)c1CNC(=O)c1ccccc1O [Example 211, 4-{[1,6-diethyl-5-({[(2-hydroxyphenyl)carbonyl]amino}methyl)-1H-pyrazolo[3,4-b]pyridin-4-yl]amino}-1-piperidinecarboxamide] | 0.01 to 0.1 nM
11 | CCc1nc2c(cnn2CC)c(NC2CCN(C(N)=O)CC2)c1CN1Cc2ccccc2C1=O [Example 212, [4-({1,6-diethyl-5-[(1-oxo-1,3-dihydro-2H-isoindol-2-yl)methyl]-1H-pyrazolo[3,4-b]pyridin-4-yl}amino)-1-piperidinecarboxamide], Formate] | 0.01 to 0.1 nM
12 | CCn1ncc2c(NC3CCOCC3)c(CNC(=O)c3ccc(-n4cccc4)nc3)c(C)nc21 [Example 214, N-{[1-ethyl-6-methyl-4-(tetrahydro-2H-pyran-4-ylamino)-1H-pyrazolo[3,4-b]pyridin-5-yl]methyl}-6-(1H-pyrrol-1-yl)-3-pyridinecarboxamide] | 0.126 to 1 nM
13 | CCn1ncc2c(NC3CCOCC3)c(CNC(=O)c3cccc(N4CCCC4=O)c3)c(C)nc21 [Example 216, N-{[1-ethyl-6-methyl-4-(tetrahydro-2H-pyran-4-ylamino)-1H-pyrazolo[3,4-b]pyridin-5-yl]methyl}-3-(2-oxo-1-pyrrolidinyl)benzamide] | 0.126 to 1 nM
14 | CCn1ncc2c(NC3CCOCC3)c(CNC(=O)c3ccco3)c(C)nc21 [Example 218, N-{[1-ethyl-6-methyl-4-(tetrahydro-2H-pyran-4-ylamino)-1H-pyrazolo[3,4-b]pyridin-5-yl]methyl}-2-furancarboxamide] | 0.126 to 1 nM
15 | CCOc1ccccc1C(=O)NCc1c(C)nc2c(cnn2CC)c1NC1CCOCC1 [Example 219, N-{[1-ethyl-6-methyl-4-(tetrahydro-2H-pyran-4-ylamino)-1H-pyrazolo[3,4-b]pyridin-5-yl]methyl}-2-(ethyloxy)benzamide] | 0.126 to 1 nM
16 | CCn1ncc2c(NC3CCOCC3)c(CNC(=O)c3cccc4c3OCC4)c(C)nc21 [Example 220, N-{[1-ethyl-6-methyl-4-(tetrahydro-2H-pyran-4-ylamino)-1H-pyrazolo[3,4-b]pyridin-5-yl]methyl}-2,3-dihydro-1-benzofuran-7-carboxamide] | 0.01 to 0.1 nM
17 | CCn1ncc2c(NC3CCOCC3)c(CNC(=O)c3cc(C)on3)c(C)nc21 [Example 225, N-{[1-ethyl-6-methyl-4-(tetrahydro-2H-pyran-4-ylamino)-1H-pyrazolo[3,4-b]pyridin-5-yl]methyl}-5-methyl-3-isoxazolecarboxamide] | 0.126 to 1 nM
18 | CCn1ncc2c(NC3CCOCC3)c(CNC(=O)c3cncs3)c(C)nc21 [Example 226, N-{[1-ethyl-6-methyl-4-(tetrahydro-2H-pyran-4-ylamino)-1H-pyrazolo[3,4-b]pyridin-5-yl]methyl}-1,3-thiazole-5-carboxamide] | 0.126 to 1 nM
19 | CCn1ncc2c(NC3CCOCC3)c(CNC(=O)c3ccsc3)c(C)nc21 [Example 227, N-{[1-ethyl-6-methyl-4-(tetrahydro-2H-pyran-4-ylamino)-1H-pyrazolo[3,4-b]pyridin-5-yl]methyl}-3-thiophenecarboxamide] | 0.126 to 1 nM
20 | CCn1ncc2c(NC3CCOCC3)c(CNC(=O)c3cnc(C)cn3)c(C)nc21 [Example 228, N-{[1-ethyl-6-methyl-4-(tetrahydro-2H-pyran-4-ylamino)-1H-pyrazolo[3,4-b]pyridin-5-yl]methyl}-5-methyl-2-pyrazinecarboxamide] | 0.126 to 1 nM
21 | CCn1ncc2c(NC3CCOCC3)c(CNC(=O)c3ccn(C)n3)c(C)nc21 [Example 229, N-{[1-ethyl-6-methyl-4-(tetrahydro-2H-pyran-4-ylamino)-1H-pyrazolo[3,4-b]pyridin-5-yl]methyl}-1-methyl-1H-pyrazole-3-carboxamide] | 0.126 to 1 nM
22 | CCc1nc2c(cnn2CC)c(NC2CCOCC2)c1CNC(=O)c1ccncc1F [Example 231, N-{[1,6-diethyl-4-(tetrahydro-2H-pyran-4-ylamino)-1H-pyrazolo[3,4-b]pyridin-5-yl]methyl}-3-fluoro-4-pyridinecarboxamide] | 0.126 to 1 nM
23 | CCc1nc2c(cnn2CC)c(NC2CCOCC2)c1CNC(=O)c1ccccc1F [Example 232, N-{[1,6-diethyl-4-(tetrahydro-2H-pyran-4-ylamino)-1H-pyrazolo[3,4-b]pyridin-5-yl]methyl}-2-fluorobenzamide] | 0.01 to 0.1 nM
